# Assay results as given in article PMC6269737, “Effect of Honokiol on Cytochrome P450 and UDP-Glucuronosyltransferase Enzyme Activities in Human Liver Microsomes” (Molecules, 2013).
# Entries after “also recorded” stand apart in the source; their conditions may differ. Like-named read-outs stand apart in the source and are kept apart here.
# Columns and labels:
# CYP1A2 = biological target: T1, CYP1A2 (Homo sapiens, UniProt P05177); experiment: CYP1A2-catalyzed phenacetin O-deethylation inhibition in pooled human liver microsomes (LC-MS/MS); assay type: in vitro ADME
# T1 sequence (P05177 1-516): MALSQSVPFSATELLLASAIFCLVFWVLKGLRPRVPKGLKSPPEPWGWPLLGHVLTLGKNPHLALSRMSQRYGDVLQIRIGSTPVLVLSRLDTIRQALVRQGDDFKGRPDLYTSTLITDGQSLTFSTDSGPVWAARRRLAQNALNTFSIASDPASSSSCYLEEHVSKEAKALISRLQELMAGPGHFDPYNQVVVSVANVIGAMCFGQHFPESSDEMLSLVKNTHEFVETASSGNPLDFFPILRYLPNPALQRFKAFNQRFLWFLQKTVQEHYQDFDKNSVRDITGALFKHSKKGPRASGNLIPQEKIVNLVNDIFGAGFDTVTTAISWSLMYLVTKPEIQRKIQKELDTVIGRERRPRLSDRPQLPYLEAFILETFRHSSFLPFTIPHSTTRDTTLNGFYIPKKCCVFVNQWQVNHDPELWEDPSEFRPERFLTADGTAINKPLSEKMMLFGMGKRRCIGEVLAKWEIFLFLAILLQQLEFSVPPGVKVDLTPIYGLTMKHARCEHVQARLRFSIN
# Method: (§1) The inhibitory potential (IC50 values) of honokiol on CYP activities was evaluated in pooled human liver microsomes using liquid chromatography-tandem mass spectrometry (LC-MS/MS). […] Honokiol was dissolved in acetonitrile. […] After a 3 min preincubation at 37 °C, the reactions were initiated by addition of an NADP generating system and incubated for 15 min at 37 °C in a shaking water bath. The reaction was then stopped by placement of the tubes on ice and adding 100 μL of ice-cold methanol containing internal standards (^13C2, ^15N-acetaminophen for acetaminophen and N-deethylamodiaquine, and d9-1-hydroxybufuralol for 4-hydroxydiclofenac, 4-hydroxybupropion, 7-hydroxycoumarin, 4-hydroxymephenytoin, 1'-hydroxybufuralol, and 1'-hydroxymidazolam). The incubation mixtures were then centrifuged at 13,000 × g for 4 min. All incubations were performed in triplicate, and average values were used.
# (§2) The reaction was initiated by the addition of the cocktail containing seven CYP probe substrates and bupropion.
# The metabolites formed from the seven CYP cocktail substrates were simultaneously determined according to our previously described LC-MS/MS method with minor modification; the concentration of 4-hydroxybupropion for CYP2B6 activity was quantified separately by LC-MS/MS. A tandem mass spectrometer (TSQ Quantum Access, Thermo Scientific, San Jose, CA, USA) coupled with a Nanospace SI-2 LC system (Tokyo, Japan) was used. The column and autosampler temperatures were 50 °C and 6 °C, respectively. The mass spectrometer was equipped with an electrospray ionization (ESI) source and operated in positive ion mode. The ESI source settings for ionization of the metabolites were as follows: capillary voltage, 4200 V; vaporizer temperature, 350 °C; capillary temperature 330 °C; sheath gas pressure, 35 psi; auxiliary gas pressure, 15 psi. Quantification was performed by selected reaction monitoring (SRM) of [M+H]^+ ions and the related product ions for each metabolite. […] Analytical data were processed using Xcalibur® software (Thermo Scientific).
# The incubation mixtures were centrifuged at 13,000 × g for 4 min, and the supernatants were diluted as follows: dilution of 20 μL supernatant with 180 μL of 25% methanol for CYP2C8; dilution of 50 μL supernatant with 50 μL of water for CYP2C9, CYP2C19, CYP2D6, and CYP1A2; and dilution of 20 μL supernatant with 80 μL of water for CYP2B6. Aliquots (5 μL) of the diluted supernatants were then analyzed by LC-MS/MS.
# (§3) The apparent kinetic parameters for inhibitory potential (Ki values) were estimated from the fitted curves using Enzyme Kinetics Ver. 1.1 software (Systat Software Inc.).
# CYP3A4 = CYP3A4 (Homo sapiens, UniProt P08684); experiment: biochemical; conditions: IC50 (μM) of honokiol, Midazolam 1'-hydroxylation
# CYP3A4, sequence (P08684 2-503): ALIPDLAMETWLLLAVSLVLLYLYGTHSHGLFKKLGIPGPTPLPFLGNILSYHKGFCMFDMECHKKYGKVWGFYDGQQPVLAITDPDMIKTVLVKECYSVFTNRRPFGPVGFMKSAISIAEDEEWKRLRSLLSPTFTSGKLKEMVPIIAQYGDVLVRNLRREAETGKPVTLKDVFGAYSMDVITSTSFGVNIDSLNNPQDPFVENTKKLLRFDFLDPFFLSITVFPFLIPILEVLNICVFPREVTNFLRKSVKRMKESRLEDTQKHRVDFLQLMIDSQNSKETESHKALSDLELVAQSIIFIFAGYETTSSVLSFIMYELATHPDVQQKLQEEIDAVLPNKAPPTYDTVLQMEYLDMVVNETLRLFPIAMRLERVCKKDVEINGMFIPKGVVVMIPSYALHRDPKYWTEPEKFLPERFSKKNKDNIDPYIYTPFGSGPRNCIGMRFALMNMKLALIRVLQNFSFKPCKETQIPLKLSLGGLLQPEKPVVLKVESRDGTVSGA
# Method: as §1, with “After a 3 min preincubation at 37 °C, the reactions were initiated by addition of an NADP generating system and incubated for 15 min at 37 °C in a shaking water bath.” left out
# as §2
# The metabolites formed from the seven CYP cocktail substrates were simultaneously determined according to our previously described LC-MS/MS method with minor modification; the concentration of 4-hydroxybupropion for CYP2B6 activity was quantified separately by LC-MS/MS. A tandem mass spectrometer (TSQ Quantum Access, Thermo Scientific, San Jose, CA, USA) coupled with a Nanospace SI-2 LC system (Tokyo, Japan) was used. […] Quantification was performed by selected reaction monitoring (SRM) of [M+H]^+ ions and the related product ions for each metabolite. […]
# UGT2B7 = biological target: T2, UGT2B7 (Homo sapiens, UniProt P16662); experiment: UGT2B7-catalyzed azidothymidine glucuronidation inhibition in pooled human liver microsomes; assay type: in vitro ADME; conditions: 100 μM azidothymidine, pooled HLM (H161)
# T2 sequence (P16662 24-529): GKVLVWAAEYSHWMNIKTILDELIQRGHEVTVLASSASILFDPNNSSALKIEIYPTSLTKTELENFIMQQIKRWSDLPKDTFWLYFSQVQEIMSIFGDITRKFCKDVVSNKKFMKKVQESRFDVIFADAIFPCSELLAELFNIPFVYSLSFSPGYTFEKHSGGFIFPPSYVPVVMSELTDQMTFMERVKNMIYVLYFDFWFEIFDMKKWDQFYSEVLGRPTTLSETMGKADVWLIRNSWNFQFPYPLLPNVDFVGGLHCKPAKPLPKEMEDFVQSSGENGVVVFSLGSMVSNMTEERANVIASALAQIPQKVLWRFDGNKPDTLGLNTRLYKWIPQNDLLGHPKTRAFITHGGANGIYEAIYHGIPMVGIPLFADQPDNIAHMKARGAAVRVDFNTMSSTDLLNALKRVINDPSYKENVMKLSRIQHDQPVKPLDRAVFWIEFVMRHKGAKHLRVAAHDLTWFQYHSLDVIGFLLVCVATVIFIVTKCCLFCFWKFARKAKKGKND
# Method: The inhibitory potency (IC50 value) of honokiol on UGT1A1-catalyzed 17β-estradiol 3-glucuronidation, UGT1A4-catalyzed trifluoperazine glucuronidation, UGT1A9-catalyzed propofol glucuronidation, and UGT2B7-catalyzed azidothymidine glucuronidation activities was determined in pooled human liver microsomes by LC-MS/MS [48]. […] Reactions were initiated by the addition of UDPGA (final concentration, 5 mM), and incubations were carried out at 37 °C in a shaking water bath for 30 min. Reactions were terminated by adding 100 μL of ice-cold methanol containing an internal standard (500 ng/mL ezetimibe for 17β-estradiol 3-glucuronide and propofol glucuronide; 30 ng/mL meloxicam for trifluoperazine glucuronide and azidothymidine glucuronide). The incubation mixtures were then centrifuged at 13,000 × g for 4 min, followed by dilution of 30 μL of the supernatant with 70 μL of water. An aliquot (5 μL) was injected onto the LC-MS/MS. All incubations were performed in triplicate and the mean values were used. Glucuronides produced from UGT isoform-specific substrates were determined by LC-MS/MS [49].
# as §3
smiles,measurement,setting,value
"C=CCc1ccc(O)c(-c2ccc(O)c(CC=C)c2)c1 [honokiol, 2-(4-hydroxy-3-prop-2-enyl-phenyl)-4-prop-2-enyl-phenol]",IC50,"CYP1A2; 50 μM phenacetin (cocktail), pooled human liver microsomes (H161), read-out: IC50 (μM) of honokiol, no preincubation",2.1 µM
same,Ki,"CYP1A2; 10–80 μM phenacetin, pooled HLM (H161)",1.2 µM
same,IC50,"CYP1A2; 30 min preincubation in the presence of NADPH, pooled HLM (H161), read-out: IC50 (μM) of honokiol, with preincubation",4.7 µM
same,Inhibition mode,CYP1A2; pooled HLM (H161),noncompetitively; also recorded: noncompetitive
same,IC50,"CYP3A4; no preincubation, 2.5 μM midazolam, pooled HLM (H161)",97.3 µM
same,IC50,"CYP3A4; with preincubation, 30 min preincubation with NADPH",45.8 µM
same,IC50,UGT2B7,36.4 µM
